Counter-ions that a name gives are not always drawn.
Tested on: Jurkat HIV-luciferase clones
Assay: Jurkat latency reversal assay
Format: cell-based
Settings: Homo sapiens, Jurkat, 48 h
How it was run: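 Three pooled Jurkat HIV-luciferase clones (C16, I15, N6; 5,000 cells/well, maintained with 500 nM EFV) exposed to 3-fold, 14-point titrations (10 μM to 2.1 pM, 0.5% DMSO) in duplicate for 48 h at 37 °C. Luciferase luminescence read; EC50 and maximal % activation versus vehicle from four-parameter logistic fit.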

## CN[C@@H](C)C(=O)N[C@H]1CCS[C@H]2CC(C)(C)[C@@H](C(=O)N[C@H](COCC#CC#CCOC[C@@H](NC(=O)[C@H]3N4C(=O)[C@@H](NC(=S)[C@H](C)NC)CCS[C@H]4CC3(C)C)c3ccccc3)c3ccccc3)N2C1=O [compound 34, (4S,7S,9aS)-N-((S)-2-((6-((S)-2-((4S,7S,9aS)-8,8-dimethyl-4-((S)-2-(methylamino)propanamido)-5-oxooctahydropyrrolo[2,1-b][1,3]thiazepine-7-carboxamido)-2-phenylethoxy)hexa-2,4-diyn-1-yl)oxy)-1-phenylethyl)-8,8-dimethyl-4-((S)-2-(methylamino)propanethioamido)-5-oxooctahydropyrrolo[2,1-b][1,3]thiazepine-7-carboxamide]
  EC50: 36.3 nM

## CN[C@@H](C)C(=S)N[C@H]1CCS[C@H]2CC(C)(C)[C@@H](C(=O)NC3c4ccccc4CC[C@H]3C(=O)N3CCN(C(=O)[C@@H]4CCc5ccccc5C4NC(=O)[C@H]4N5C(=O)[C@@H](NC(=S)[C@H](C)NC)CCS[C@H]5CC4(C)C)CC3)N2C1=O (stereo in doubt) [compound 8, (4S,4′S,7S,7′S,9aS,9a′S)-N,N′-((1R,1′R,2R,2′R)-(piperazine-1,4-dicarbonyl)bis(1,2,3,4-tetrahydronaphthalene-2,1-diyl))bis(8,8-dimethyl-4-((S)-2-(methylamino)propanethioamido)-5-oxooctahydropyrrolo[2,1-b][1,3]thiazepine-7-carboxamide) dihydrochloride]
  EC50: 2.4 nM

## CN[C@@H](C)C(=O)N[C@H]1CCS[C@H]2CC(C)(C)[C@@H](C(=O)N[C@H]3c4ccccc4C[C@H]3OCCCOCCCO[C@@H]3Cc4ccccc4[C@@H]3NC(=O)[C@H]3N4C(=O)[C@@H](NC(=O)[C@H](C)NC)CCS[C@H]4CC3(C)C)N2C1=O [compound 51, (4S,7S,9aS)-N-[(1S,2R)-2-[3-(3-{[(1S,2R)-1-[(4S,7S,9aS)-8,8-dimethyl-4-[(2S)-2-(methylamino)propanamido]-5-oxo-octahydropyrrolo[2,1-b][1,3]thiazepine-7-amido]-2,3-dihydro-1H-inden-2-yl]oxy}propoxy)propoxy]-2,3-dihydro-1H-inden-1-yl]-8,8-dimethyl-4-[(2S)-2-(methylamino)propanamido]-5-oxo-octahydropyrrolo[2,1-b][1,3]thiazepine-7-carboxamide]
  EC50: 24 nM

## CN[C@@H](C)C(=O)N[C@H]1CCS[C@H]2CC(C)(C)[C@@H](C(=O)N[C@H]3c4ccccc4C[C@H]3OCCOCCO[C@@H]3Cc4ccccc4[C@@H]3NC(=O)[C@H]3N4C(=O)[C@@H](NC(=O)[C@H](C)NC)CCS[C@H]4CC3(C)C)N2C1=O [compound 18, (4S,4′S,7S,7′S,9aS,9a′S)-N,N′-((1S,1′S,2R,2′R)-((oxybis(ethane-2,1-diyl))bis(oxy))bis(2,3-dihydro-1H-indene-2,1-diyl))bis(8,8-dimethyl-4-((S)-2-(methylamino)propanamido)-5-oxooctahydropyrrolo[2,1-b][1,3]thiazepine-7-carboxamide) dihydrochloride]
  EC50: 22.3 nM

## CN[C@@H](C)C(=O)N[C@H]1CCS[C@H]2CC(C)(C)[C@@H](C(=O)N[C@H]3c4ccccc4C[C@H]3OCCCCCCCCO[C@@H]3Cc4ccccc4[C@@H]3NC(=O)[C@H]3N4C(=O)[C@@H](NC(=O)[C@H](C)NC)CCS[C@H]4CC3(C)C)N2C1=O [compound 63, (4S,4′S,7S,7′S,9aS,9a′S)-N,N′-((1S,1′S,2R,2′R)-(octane-1,8-diylbis(oxy))bis(2,3-dihydro-1H-indene-2,1-diyl))bis(8,8-dimethyl-4-((S)-2-(methylamino)propanamido)-5-oxooctahydropyrrolo[2,1-b][1,3]thiazepine-7-carboxamide) dihydrochloride]
  EC50: 11.6 nM

## CN[C@@H](C)C(=S)N[C@H]1CCS[C@H]2CC(C)(C)[C@@H](C(=O)N[C@H](COCC#CC#CCOC[C@@H](NC(=O)[C@H]3N4C(=O)[C@@H](NC(=S)[C@H](C)NC)CCS[C@H]4CC3(C)C)c3ccccc3)c3ccccc3)N2C1=O [compound 35, (4S,4′S,7S,7′S,9aS,9a′S)-N,N′-((1S,1′S)-(hexa-2,4-diyne-1,6-diylbis(oxy))bis(1-phenylethane-2,1-diyl))bis(8,8-dimethyl-4-((S)-2-(methylamino)propanethioamido)-5-oxooctahydropyrrolo[2,1-b][1,3]thiazepine-7-carboxamide)]
  EC50: 9 nM

## CN[C@@H](C)C(=S)N[C@H]1CCS[C@H]2CC(C)(C)[C@@H](C(=O)N[C@H](C(=O)N3CCN(C(=O)[C@@H](NC(=O)[C@H]4N5C(=O)[C@@H](NC(=S)[C@H](C)NC)CCS[C@H]5CC4(C)C)c4ccccc4)CC3)c3ccccc3)N2C1=O [compound 27, (4S,4′S,7S,7′S,9aS,9a′S)-N,N′-((1S,1′S)-piperazine-1,4-diylbis(2-oxo-1-phenylethane-2,1-diyl))bis(8,8-dimethyl-4-((S)-2-(methylamino)propanethioamido)-5-oxooctahydropyrrolo[2,1-b][1,3]thiazepine-7-carboxamide) dihydrochloride]
  EC50: 52.2 nM

## CN[C@@H](C)C(=O)N[C@H]1CCS[C@H]2CC(C)(C)[C@@H](C(=O)N[C@H]3c4ccccc4C[C@H]3OCc3ccc(CO[C@@H]4Cc5ccccc5[C@@H]4NC(=O)[C@H]4N5C(=O)[C@@H](NC(=O)[C@H](C)NC)CCS[C@H]5CC4(C)C)cc3)N2C1=O [compound 22, (4S,4′S,7S,7′S,9aS,9a′S)-N,N′-((1S,1′S,2R,2′R)-((1,4-phenylenebis(methylene))bis(oxy))bis(2,3-dihydro-1H-indene-2,1-diyl))bis(8,8-dimethyl-4-((S)-2-(methylamino)propanamido)-5-oxooctahydropyrrolo[2,1-b][1,3]thiazepine-7-carboxamide)]
  EC50: 8.8 nM

## CN[C@@H](C)C(=S)N[C@H]1CCS[C@H]2CC(C)(C)[C@@H](C(=O)N[C@H](C(=O)NCc3ccc(CNC(=O)[C@@H](NC(=O)[C@H]4N5C(=O)[C@@H](NC(=S)[C@H](C)NC)CCS[C@H]5CC4(C)C)c4ccccc4)cc3)c3ccccc3)N2C1=O [compound 25, (4S,4′S,7S,7′S,9aS,9a′S)-N,N′-((1S,1′S)-((1,4-phenylenebis(methylene))bis(azanediyl))bis(2-oxo-1-phenylethane-2,1-diyl))bis(8,8-dimethyl-4-((S)-2-(methylamino)propanethioamido)-5-oxooctahydropyrrolo[2,1-b][1,3]thiazepine-7-carboxamide) dihydrochloride]
  EC50: 61.8 nM

## CN[C@@H](C)C(=O)N[C@H]1CCS[C@H]2CC(C)(C)[C@@H](C(=O)N[C@H](C(=O)NCC#CC#CCNC(=O)[C@@H](NC(=O)[C@H]3N4C(=O)[C@@H](NC(=O)[C@H](C)NC)CCS[C@H]4CC3(C)C)c3ccccc3)c3ccccc3)N2C1=O [compound 30, (4S,4′S,7S,7′S,9aS,9a′S)-N,N′-((1S,1′S)-(hexa-2,4-diyne-1,6-diylbis(azanediyl))bis(2-oxo-1-phenylethane-2,1-diyl))bis(8,8-dimethyl-4-((S)-2-(methylamino)propanamido)-5-oxooctahydropyrrolo[2,1-b][1,3]thiazepine-7-carboxamide) dihydrochloride]
  EC50: 65.4 nM
